Source: publication PMC4216499 (The Indian Journal of Medical Research, 2014)
Values joined by “and” are separate entries in the source; they are usually repeats but may differ in a detail not shown here. Equal entries are not always repeated.

Experiments:
influenza A viruses = details: cited from earlier work
pandemic (H1N1) viruses = tested on: pandemic (H1N1) viruses; parameters: species or system pandemic influenza A (H1N1) virus
A/H1N1 viruses = tested on: A/H1N1 viruses; parameters: species or system influenza A/H1N1 virus
A/H3N2 viruses = tested on: A/H3N2 viruses; parameters: species or system influenza A/H3N2 virus
[1] = tested on: pandemic (H1N1) 2009 viruses; details: cited from earlier work
Type B influenza = tested on: Type B influenza; parameters: species or system influenza B virus

In the case of `NC12CC3CC(CC(C3)C1)C2` [amantadine], the Amantadine resistance (influenza A viruses) is listed as 33-100%.
With `CCOC(=O)C1=C[C@@H](OC(CC)CC)[C@H](NC(C)=O)[C@@H](N)C1` [oseltamivir] the “oseltamivir susceptibility by H274Y allelic discrimination” value (pandemic (H1N1) viruses) was “all were sensitive”, the “Total resistant samples/Total samples” value (A/H1N1 viruses) was 35/38 and 15/23 and the “oseltamivir resistant with H274Y mutation” value (A/H1N1 viruses) was 82%. The oseltamivir-resistance conferring mutations (A/H3N2 viruses) was “none of the isolates had any of the reported oseltamivir-resistance conferring mutations”, the oseltamivir-resistant viruses detected [1] was “less than 1 per cent” and the “oseltamivir susceptibility by NA gene markers” value (Type B influenza) was “all type B isolates were sensitive”.
